Our source for the EC50 values is US7998950B2, “Antiviral compounds” (Gilead Sciences, Inc., priority 2008, dated 2011).

The first assay has as its system HIV-IIIb. The experiment in a line: Antiviral assay in MT-2 cells infected with HIV-IIIb. The following applies: Human immunodeficiency virus 1, IIIB, MT2, 120 h, MT-2 cells infected with HIV-IIIb, m.o.i. 0.01, 10% FBS, 5 days at 37° C., CellTiter-Glo chemiluminescence; read-out: EC50 in MT-2 cells. Format: cell-based. For orientation: In ATP-based viability assays light output follows the ATP content of the culture.
As to `CNC(=O)c1c(O)c2ncc(Cc3ccc(F)cc3)c3c2n(c1=O)C[C@@H](C(=O)NCC(C)(C)C#N)O3` [Example 175], the EC50 is 2.4 nM.

Regarding `CNC(=O)[C@@H]1Cn2c(=O)c(C(=O)NCCO)c(O)c3ncc(Cc4ccc(F)cc4)c(c32)O1` [Example 176], the EC50 came out at 23.2 nM.

Consider `CNC(=O)c1c(O)c2ncc(Cc3ccc(F)c(Cl)c3)c3c2n(c1=O)C[C@@H](C(=O)NC)O3` [Example 177], for which the half-maximal effective concentration (EC50) amounted to 1.2 nM.

For the compound `CNC(=O)c1c(O)c2ncc(Cc3ccc(F)cc3)c3c2n(c1=O)C[C@@H](CC#N)O3` [Example 181], the EC50 was found to be 1.2 nM.

For `CNC(=O)c1c(O)c2ncc(Cc3ccc(F)cc3)c3c2n(c1=O)C[C@@H](Cn1ccnc1)O3` [Example 183], the EC50 amounted to 1.8 nM.

Regarding `CNC[C@H]1Cn2c(=O)c(C(=O)NC)c(O)c3ncc(Cc4ccc(F)cc4)c(c32)O1` [Example 197], the EC50 is 32 nM.

In the case of `CNC(=O)c1c(O)c2ncc(Cc3ccc(F)cc3)c3c2n(c1=O)C[C@H](CC#N)O3` [Example 198], the 50% effective concentration (EC50) amounted to 3 nM.

As to `CNC(=O)C(=O)NC[C@@H]1Cn2c(=O)c(C(=O)NC)c(O)c3ncc(Cc4ccc(F)cc4)c(c32)O1` [Example 199], the EC50 amounted to 6.7 nM.

As to `CNC(=O)c1c(O)c2ncc(Cc3ccc(F)cc3)c3c2n(c1=O)C[C@@H](CNC(C)=O)O3` [Example 200], the EC50 was determined as 1.1 nM.

Turning to `CNC(=O)c1c(O)c2ncc(Cc3ccc(F)cc3)c3c2n(c1=O)C[C@@H](CN(C)C(C)(C)C)O3` [Example 201], the EC50 came to 2.8 nM.

Consider `CNC(=O)c1c(O)c2ncc(Cc3ccc(F)cc3)c3c2n(c1=O)C[C@@H](CN(C)CCO)O3` [Example 202], for which the EC50 worked out at 12 nM.

Take `CNC(=O)c1c(O)c2ncc(Cc3ccc(F)cc3)c3c2n(c1=O)C[C@@H](Cn1ccnc1C)O3` [Example 203]: the EC50 came out at 12 nM.

In the case of `CNC(=O)c1c(O)c2ncc(Cc3ccc(F)cc3)c3c2n(c1=O)C[C@@H](Cn1ccnc1C(=O)NC)O3` [Example 205], the EC50 amounted to 1 nM.

Take `CNC(=O)c1c(O)c2ncc(Cc3ccc(F)cc3)c3c2n(c1=O)C[C@@H](CN(C)S(C)(=O)=O)O3` [Example 206]: the concentration giving a half-maximal response (EC50) turned out to be 0.1 nM.

In the case of `CNC(=O)c1c(O)c2ncc(Cc3ccc(F)cc3)c3c2n(c1=O)C[C@@H](CN(C)C(=O)c1nnc(C)o1)O3` [Example 207], the EC50 stood at 4.6 nM.

For `CNC(=O)c1c(O)c2ncc(Cc3ccc(F)cc3)c3c2n(c1=O)C[C@H](CN(C)S(C)(=O)=O)O3` [Example 208], the EC50 was determined as 0.6 nM.

In the case of `CNC(=O)c1c(O)c2ncc(Cc3ccc(F)cc3)c3c2n(c1=O)C[C@H](CN(C)C(C)=O)O3` [Example 209], the half-maximal effective concentration (EC50) was 5.1 nM.

Regarding `O=C(NCCO)c1c(O)c2ncc(Cc3ccc(F)cc3)c3c2n(c1=O)CCO3` [compound 12], the 50% effective concentration (EC50) came out at 3.2 nM.

In the case of `O=C(NCCN1CCOCC1)c1c(O)c2ncc(Cc3ccc(F)cc3)c3c2n(c1=O)CCO3` [compound 13], the EC50 was found to be 7 nM.

As to `O=C(NCCN1CCNC1=O)c1c(O)c2ncc(Cc3ccc(F)cc3)c3c2n(c1=O)CCO3` [compound 14], the EC50 turned out to be 5.5 nM.

With `O=C(NCCN(CCO)CCO)c1c(O)c2ncc(Cc3ccc(F)cc3)c3c2n(c1=O)CCO3` [compound 15], the EC50 stood at 13 nM.

With `CC(C)N1CCN(CCNC(=O)c2c(O)c3ncc(Cc4ccc(F)cc4)c4c3n(c2=O)CCO4)CC1` [compound 16], the EC50 turned out to be 12 nM.

On to `O=C(NCCN1CCNCC1)c1c(O)c2ncc(Cc3ccc(F)cc3)c3c2n(c1=O)CCO3` [compound 18], for which the EC50 was 20 nM.

As for `O=C(NCCO)c1c(O)c2ncc(Cc3ccc(F)cc3)c3c2n(c1=O)CCCO3` [compound 24], the EC50 is 4.6 nM.

For `O=C(NCCO)c1c(O)c2ncc(Cc3ccc(F)cc3)c3c2n(c1=O)CCN3` [compound 30], the EC50 stood at 7 nM.

`O=C(NCCOCc1ccccc1)c1c(O)c2ncc(Cc3ccc(F)cc3)c3c2n(c1=O)CCN3` [compound 32]: the EC50 is 6 nM.

Regarding `COCCNC(=O)c1c(O)c2ncc(Cc3ccc(F)cc3)c3c2n(c1=O)CCN3` [compound 33], the EC50 amounted to 3.3 nM.

Take `O=C(NCCCN1CCCC1=O)c1c(O)c2ncc(Cc3ccc(F)cc3)c3c2n(c1=O)CCN3` [compound 34]: the EC50 is 9.5 nM.

For `O=C(NCCN1CCOCC1)c1c(O)c2ncc(Cc3ccc(F)cc3)c3c2n(c1=O)CCN3` [compound 35], the EC50 amounted to 5.5 nM.

For `O=C(NC1CC1)c1c(O)c2ncc(Cc3ccc(F)cc3)c3c2n(c1=O)CCN3` [compound 36], the EC50 came out at 3.5 nM.

For `CNC(=O)c1c(O)c2ncc(Cc3ccc(F)cc3)c3c2n(c1=O)CCN3` [compound 37], the EC50 came to 5.8 nM.

Take `CCOCCNC(=O)c1c(O)c2ncc(Cc3ccc(F)cc3)c3c2n(c1=O)CCN3` [compound 38]: the EC50 is 8.5 nM.

As for `CC(C)(O)CNC(=O)c1c(O)c2ncc(Cc3ccc(F)cc3)c3c2n(c1=O)CCN3` [compound 39], the EC50 worked out at 9.5 nM.

Take `CC(=O)N1CCn2c(=O)c(C(=O)NCCO)c(O)c3ncc(Cc4ccc(F)cc4)c1c32` [compound 43]: the EC50 worked out at 982 nM.

In the case of `CN1CCn2c(=O)c(C(=O)NCCO)c(O)c3ncc(Cc4ccc(F)cc4)c1c32` [compound 45], the EC50 stood at 2 nM.

On to `O=C(NC1CC1)c1c(O)c2ncc(Cc3ccc(F)cc3)c3c2n(c1=O)CCCN3` [compound 50], for which the EC50 turned out to be 17 nM.

Turning to `C[C@@H](CO)NC(=O)c1c(O)c2ncc(Cc3ccc(F)cc3)c3c2n(c1=O)CCCN3` [compound 51], the half-maximal effective concentration (EC50) stood at 4 nM.

With `COCCNC(=O)c1c(O)c2ncc(Cc3ccc(F)cc3)c3c2n(c1=O)CCCN3` [compound 52], the concentration giving a half-maximal response (EC50) came out at 8 nM.

Regarding `CC1(C)Cn2c(=O)c(C(=O)NCCO)c(O)c3ncc(Cc4ccc(F)cc4)c1c32` [compound 59], the EC50 was found to be 85 nM.

Turning to `CC1(C)Cn2c(=O)c(C(=O)NCCN3CCOCC3)c(O)c3ncc(Cc4ccc(F)cc4)c1c32` [compound 60], the EC50 was 400 nM.

For the compound `O=C(NCCO)c1c(O)c2ncc(Cc3ccc(F)cc3)c3c2n(c1=O)CCC3` [compound 65], the EC50 amounted to 1.5 nM.

On to `Cc1cn2c(=O)c(C(=O)NCCO)c(O)c3ncc(Cc4ccc(F)cc4)c1c32` [compound 72], for which the EC50 came to 20 nM.

Regarding `O=C(NCCO)c1c(O)c2ncc(Cc3ccc(F)cc3)c3c2n(c1=O)CC(F)(F)CN3` [compound 79], the EC50 is 7 nM.

The assay is the same for the next values; noted with them: Human immunodeficiency virus 1, IIIB, MT2, 120 h, read-out: EC50 in MT-2 cells (nM).
Turning to `CNC(=O)c1c(O)c2ncc(Cc3ccc(F)cc3)c3c2n(c1=O)C[C@@H](CN(C)S(=O)(=O)N(C)C)O3` [Example 210], the EC50 was 5 nM.

The EC50 is the midpoint of the concentration-response curve.
